Data taken from patent US20240173319A1, “SOLID DOSE PHARMACEUTICAL COMPOSITION” (Sumitomo Pharma Oncology, Inc., priority 2019, published 2024).

Tests used:
Assay type in all cases: physicochemical
[1] = Log D (pH 7.4) of the API
Method: The hydrochloride salt of the compound of formula (I) was formulated into three (3) oral dose strengths (5, 25, and 125 mg dose [based on free base]). The physicochemical properties of the compound of formula (I), the active pharmaceutical ingredient (API), are summarized in Table 1.

[2] = Solubility of the API in media
Method: The solubility of the API was tested. In all media, solubility of the compound is good, namely the maximum tested dose of 125 mg was found soluble in 250 mL of media. […] This characterization may not be accurate for larger doses. Reference is made to Table 2.

[3] = Excipient compatibility study, related substances (unknown RRT)
Method: An initial excipient compatibility study was performed.
In the compatibility study, all the samples were evaluated for two (2) primary properties: appearance and related substances.
(close) for 4W with respect to their related substance profile.

[4] = 40° C./75% RH, open glass vial, 4 week

COc1cc(Nc2nccc(Nc3cccnc3-c3ccccn3)n2)ccc1N1CCN(C)CC1.Cl [API, N2-[3-methoxy-4-(4-methylpiperazin-1yl)phenyl]-N4-[2-(pyridin-2-yl)pyridin 3-yl] pyrimidine-2,4-diamine hydrochloride]
logD [1]: 2.66
Maximum dose mg solubility in 250 ml ([2]; 0.1N HCl): 256 mg
solubility ([2]; 0.1N HCl, pH 1.005, simulated gastric fluid): 1030 µg/mL
Maximum dose mg solubility in 250 ml ([2]; Water): 252 mg
Solubility characterization with reference to BCS classification ([2]; maximum tested dose of 125 mg in 250 mL of media): highly soluble
Maximum dose mg solubility in 250 ml ([2]; pH 4.5 Acetate buffer): 253 mg
solubility ([2]; pH 4.5 acetate buffer, pH 4.508, aqueous buffer): 1010 µg/mL
Maximum dose mg solubility in 250 ml ([2]; pH 6.8 Phosphate buffer): 245 mg
solubility ([2]; pH 6.8 phosphate buffer, pH 6.812, aqueous buffer): 980 µg/mL
solubility ([2]; water, pH 6.213, water): 1010 µg/mL
Total (related substances) [3, 4]: 0.84%
Unknown RRT 0.162 [3, 4]: 0.11%
Unknown RRT 0.866 [3, 4]: BQL
Unknown RRT 0.989 [3, 4]: BQL
Unknown RRT 1.046 [3, 4]: BQL
Unknown RRT 1.07 [3, 4]: 0.07%
Unknown RRT 1.08 [3, 4]: 0.05%
Unknown RRT 1.341 [3, 4]: 0.2%
Unknown RRT 1.38 [3, 4]: 0.1%
Unknown RRT 1.549 [3, 4]: 0.19%
Unknown RRT 1.633 [3, 4]: 0.12%
Total (related substances) ([3]; Initial): 0.93%
Unknown RRT 0.162 ([3]; Initial): 0.12%
Unknown RRT 0.989 ([3]; Initial): BQL
Unknown RRT 1.046 ([3]; Initial): BQL
Unknown RRT 1.07 ([3]; Initial): 0.07%
Unknown RRT 1.08 ([3]; Initial): 0.06%
Unknown RRT 1.341 ([3]; Initial): 0.27%
Unknown RRT 1.38 ([3]; Initial): 0.08%
Unknown RRT 1.549 ([3]; Initial): 0.21%
Unknown RRT 1.633 ([3]; Initial): 0.12%
